Data on 2 compounds can be found in ChEMBL document CHEMBL5291721, “A preclinical secondary pharmacology resource illuminates target-adverse drug reaction associations of marketed drugs” (Nat Commun, 2023).

Some targets named below: Vasopressin V1a receptor (Homo sapiens, UniProt P37288); Histamine H1 receptor (Homo sapiens, UniProt P35367); Adenosine receptor A2a (Homo sapiens, UniProt P29274); Histamine H3 receptor (Homo sapiens, UniProt Q9Y5N1); Vasopressin V2 receptor (Homo sapiens, UniProt P30518).
Another experiment deals with Cannabinoid receptor 1 (Homo sapiens, UniProt P21554). The format is functional, cell-based.
Sequence of Cannabinoid receptor 1 (P21554 whole entry): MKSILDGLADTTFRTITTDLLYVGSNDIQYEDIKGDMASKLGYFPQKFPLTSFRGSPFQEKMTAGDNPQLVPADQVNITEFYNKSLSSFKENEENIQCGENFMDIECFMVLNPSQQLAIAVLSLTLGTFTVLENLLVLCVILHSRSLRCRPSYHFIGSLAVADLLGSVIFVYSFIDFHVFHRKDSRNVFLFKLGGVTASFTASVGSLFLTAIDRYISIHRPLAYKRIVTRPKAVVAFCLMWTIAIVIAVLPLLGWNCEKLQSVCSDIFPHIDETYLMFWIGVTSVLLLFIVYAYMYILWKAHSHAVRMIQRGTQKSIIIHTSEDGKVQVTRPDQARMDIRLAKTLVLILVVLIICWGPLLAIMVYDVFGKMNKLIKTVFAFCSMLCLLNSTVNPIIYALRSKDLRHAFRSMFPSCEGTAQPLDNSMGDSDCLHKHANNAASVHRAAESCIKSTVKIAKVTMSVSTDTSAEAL
For experiment [1], the target named is Growth hormone secretagogue receptor type 1 (Homo sapiens, UniProt Q92847).
Sequence of Growth hormone secretagogue receptor type 1 (Q92847 whole entry): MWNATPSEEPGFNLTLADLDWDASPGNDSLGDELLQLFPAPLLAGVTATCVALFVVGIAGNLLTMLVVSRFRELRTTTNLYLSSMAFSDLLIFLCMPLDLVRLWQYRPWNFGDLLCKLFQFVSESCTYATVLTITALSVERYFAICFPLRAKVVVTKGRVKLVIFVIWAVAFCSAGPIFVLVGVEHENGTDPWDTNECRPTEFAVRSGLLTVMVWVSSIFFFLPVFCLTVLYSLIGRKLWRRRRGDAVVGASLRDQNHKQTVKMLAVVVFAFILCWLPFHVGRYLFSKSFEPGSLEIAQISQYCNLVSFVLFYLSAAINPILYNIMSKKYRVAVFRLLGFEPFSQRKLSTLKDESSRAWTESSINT
Experiment [2] addresses T1, Alpha-2C adrenergic receptor (Homo sapiens, UniProt P18825).
T1 sequence (P18825 whole entry): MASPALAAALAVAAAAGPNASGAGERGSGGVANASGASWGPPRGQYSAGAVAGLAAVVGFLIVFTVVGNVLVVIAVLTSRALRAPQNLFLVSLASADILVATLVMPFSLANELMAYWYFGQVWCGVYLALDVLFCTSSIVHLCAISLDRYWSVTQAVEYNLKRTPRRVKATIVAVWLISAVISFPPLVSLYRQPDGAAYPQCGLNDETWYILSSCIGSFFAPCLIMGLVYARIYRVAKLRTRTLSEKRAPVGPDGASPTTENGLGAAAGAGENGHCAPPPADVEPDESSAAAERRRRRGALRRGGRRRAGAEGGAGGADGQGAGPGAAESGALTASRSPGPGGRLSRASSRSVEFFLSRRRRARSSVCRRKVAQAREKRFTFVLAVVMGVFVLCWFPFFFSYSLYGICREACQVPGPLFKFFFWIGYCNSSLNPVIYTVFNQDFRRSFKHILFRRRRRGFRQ
The experiment is classed as functional.

The target in experiment [3] is T2, 5-hydroxytryptamine receptor 2B (Homo sapiens, UniProt P41595). The experiment is classed as functional, cell-based.
T2 sequence (P41595 whole entry): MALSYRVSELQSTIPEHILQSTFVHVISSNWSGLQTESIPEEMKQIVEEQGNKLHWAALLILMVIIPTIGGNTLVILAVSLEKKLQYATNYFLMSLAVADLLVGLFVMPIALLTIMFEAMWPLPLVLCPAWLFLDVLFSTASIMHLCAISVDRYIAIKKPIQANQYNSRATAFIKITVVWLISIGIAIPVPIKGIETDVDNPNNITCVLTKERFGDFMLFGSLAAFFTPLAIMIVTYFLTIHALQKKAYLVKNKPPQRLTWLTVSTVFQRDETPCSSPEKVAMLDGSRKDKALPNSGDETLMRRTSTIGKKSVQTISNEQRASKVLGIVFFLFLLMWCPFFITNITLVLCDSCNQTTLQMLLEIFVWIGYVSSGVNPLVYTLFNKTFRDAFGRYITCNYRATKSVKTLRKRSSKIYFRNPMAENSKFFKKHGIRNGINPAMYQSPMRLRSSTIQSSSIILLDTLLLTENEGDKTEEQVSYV
Experiment [4] deals with T2, 5-hydroxytryptamine receptor 2B. The experiment is classed as functional, cell-based. This is another data set of the same source.
The target in experiment [5] is Sodium-dependent noradrenaline transporter (Homo sapiens, UniProt P23975).
Sequence of Sodium-dependent noradrenaline transporter (P23975 whole entry): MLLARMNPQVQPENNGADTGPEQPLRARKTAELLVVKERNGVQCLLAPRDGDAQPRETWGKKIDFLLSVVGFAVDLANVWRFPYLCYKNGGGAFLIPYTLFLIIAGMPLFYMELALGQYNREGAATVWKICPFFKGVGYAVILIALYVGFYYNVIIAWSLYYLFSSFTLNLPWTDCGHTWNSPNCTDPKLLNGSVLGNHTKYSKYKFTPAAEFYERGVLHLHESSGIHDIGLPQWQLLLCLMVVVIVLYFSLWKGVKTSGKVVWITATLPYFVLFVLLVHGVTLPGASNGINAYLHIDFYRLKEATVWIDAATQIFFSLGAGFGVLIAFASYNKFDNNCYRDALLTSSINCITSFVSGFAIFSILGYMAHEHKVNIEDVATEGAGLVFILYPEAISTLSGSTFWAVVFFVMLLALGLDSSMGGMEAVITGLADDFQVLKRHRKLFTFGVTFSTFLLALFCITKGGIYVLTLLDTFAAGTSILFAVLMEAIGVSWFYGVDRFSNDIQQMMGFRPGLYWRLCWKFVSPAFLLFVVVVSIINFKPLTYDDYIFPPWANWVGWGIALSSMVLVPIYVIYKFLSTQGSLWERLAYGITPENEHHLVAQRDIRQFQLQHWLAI
In another experiment the target is Mu-type opioid receptor (Homo sapiens, UniProt P35372). In words: biochemical. The format is functional.
Sequence of Mu-type opioid receptor (P35372 whole entry): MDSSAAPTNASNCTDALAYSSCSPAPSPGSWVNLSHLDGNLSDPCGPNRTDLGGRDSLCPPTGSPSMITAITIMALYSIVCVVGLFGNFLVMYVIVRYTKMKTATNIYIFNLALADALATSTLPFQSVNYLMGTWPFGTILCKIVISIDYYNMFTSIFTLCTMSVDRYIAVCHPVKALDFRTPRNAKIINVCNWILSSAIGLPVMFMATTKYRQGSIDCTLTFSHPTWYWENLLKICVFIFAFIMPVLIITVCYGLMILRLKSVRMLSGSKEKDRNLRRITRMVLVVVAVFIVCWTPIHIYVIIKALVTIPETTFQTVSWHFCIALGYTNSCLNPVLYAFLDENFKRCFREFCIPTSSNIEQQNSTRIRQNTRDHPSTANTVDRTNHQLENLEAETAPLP
The target of experiment [6] is T3, Alpha-2A adrenergic receptor (Homo sapiens, UniProt P08913).
T3 sequence (P08913 whole entry): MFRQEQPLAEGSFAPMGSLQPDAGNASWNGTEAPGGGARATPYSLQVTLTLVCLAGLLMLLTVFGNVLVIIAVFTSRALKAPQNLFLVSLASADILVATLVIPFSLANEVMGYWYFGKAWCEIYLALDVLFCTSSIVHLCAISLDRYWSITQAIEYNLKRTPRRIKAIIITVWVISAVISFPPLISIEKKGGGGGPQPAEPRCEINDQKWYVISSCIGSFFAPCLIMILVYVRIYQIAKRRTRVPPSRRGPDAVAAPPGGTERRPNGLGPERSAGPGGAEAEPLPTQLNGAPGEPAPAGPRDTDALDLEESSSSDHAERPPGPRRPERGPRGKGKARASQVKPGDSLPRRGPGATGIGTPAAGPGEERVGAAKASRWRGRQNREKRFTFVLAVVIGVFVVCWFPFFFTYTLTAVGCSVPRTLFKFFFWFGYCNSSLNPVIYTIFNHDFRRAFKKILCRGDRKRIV
The format is functional, cell-based.

Experiment [7] has as its target Muscarinic acetylcholine receptor M3 (Homo sapiens, UniProt P20309).
A further experiment has as its target T4, B2 bradykinin receptor (Homo sapiens, UniProt P30411).
T4 sequence (P30411 whole entry): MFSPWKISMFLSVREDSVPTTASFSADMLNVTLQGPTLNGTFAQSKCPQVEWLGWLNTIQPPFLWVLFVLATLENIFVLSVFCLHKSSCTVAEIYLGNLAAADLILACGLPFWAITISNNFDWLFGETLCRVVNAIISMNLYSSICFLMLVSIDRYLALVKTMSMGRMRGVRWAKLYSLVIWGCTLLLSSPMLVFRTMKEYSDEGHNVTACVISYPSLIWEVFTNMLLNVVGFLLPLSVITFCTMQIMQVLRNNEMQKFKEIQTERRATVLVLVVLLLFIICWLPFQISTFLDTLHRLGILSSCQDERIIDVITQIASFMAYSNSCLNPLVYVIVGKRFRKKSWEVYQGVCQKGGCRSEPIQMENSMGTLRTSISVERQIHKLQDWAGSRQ

In experiment [8] the target is Kappa-type opioid receptor (Homo sapiens, UniProt P41145).
Experiment [9] concerns the target Gamma-aminobutyric acid receptor subunit alpha-1 (Rattus norvegicus, UniProt P62813). The format is functional.
The target in another experiment is T5, Adenosine receptor A1 (Homo sapiens, UniProt P30542).
T5 sequence (P30542 whole entry): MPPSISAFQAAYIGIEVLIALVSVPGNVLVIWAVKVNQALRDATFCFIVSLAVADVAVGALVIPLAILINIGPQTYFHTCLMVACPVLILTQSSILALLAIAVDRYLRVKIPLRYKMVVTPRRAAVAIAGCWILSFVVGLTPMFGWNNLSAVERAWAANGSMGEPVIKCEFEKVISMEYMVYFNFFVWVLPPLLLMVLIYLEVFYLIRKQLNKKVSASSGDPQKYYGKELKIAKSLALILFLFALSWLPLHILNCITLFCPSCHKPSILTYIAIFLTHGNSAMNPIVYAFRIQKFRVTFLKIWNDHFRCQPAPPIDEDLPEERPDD
Also: assay procedure not described here.

Sequence of Vasopressin V2 receptor (P30518 whole entry): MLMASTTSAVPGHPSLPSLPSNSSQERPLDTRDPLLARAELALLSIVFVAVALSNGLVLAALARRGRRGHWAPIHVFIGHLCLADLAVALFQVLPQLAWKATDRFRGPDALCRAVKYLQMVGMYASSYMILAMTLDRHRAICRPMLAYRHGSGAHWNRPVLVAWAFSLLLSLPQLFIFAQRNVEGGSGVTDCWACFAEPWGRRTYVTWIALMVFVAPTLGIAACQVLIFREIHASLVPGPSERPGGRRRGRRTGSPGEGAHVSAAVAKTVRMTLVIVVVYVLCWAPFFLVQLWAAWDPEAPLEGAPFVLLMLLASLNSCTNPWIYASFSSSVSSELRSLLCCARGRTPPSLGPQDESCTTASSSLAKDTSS
Sequence of Histamine H3 receptor (Q9Y5N1 whole entry): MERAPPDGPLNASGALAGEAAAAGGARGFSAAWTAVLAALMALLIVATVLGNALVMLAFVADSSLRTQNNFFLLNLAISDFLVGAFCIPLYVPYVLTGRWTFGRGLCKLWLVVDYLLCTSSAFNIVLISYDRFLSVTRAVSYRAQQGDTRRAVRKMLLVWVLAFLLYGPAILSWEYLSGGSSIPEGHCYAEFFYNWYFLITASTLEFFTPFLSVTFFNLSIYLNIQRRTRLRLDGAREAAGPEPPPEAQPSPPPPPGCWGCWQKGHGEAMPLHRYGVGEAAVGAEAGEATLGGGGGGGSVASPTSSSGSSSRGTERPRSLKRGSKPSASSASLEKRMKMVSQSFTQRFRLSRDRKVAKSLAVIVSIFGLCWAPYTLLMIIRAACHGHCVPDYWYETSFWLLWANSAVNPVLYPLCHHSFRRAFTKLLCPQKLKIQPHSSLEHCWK
Sequence of Gamma-aminobutyric acid receptor subunit alpha-1 (P62813 whole entry): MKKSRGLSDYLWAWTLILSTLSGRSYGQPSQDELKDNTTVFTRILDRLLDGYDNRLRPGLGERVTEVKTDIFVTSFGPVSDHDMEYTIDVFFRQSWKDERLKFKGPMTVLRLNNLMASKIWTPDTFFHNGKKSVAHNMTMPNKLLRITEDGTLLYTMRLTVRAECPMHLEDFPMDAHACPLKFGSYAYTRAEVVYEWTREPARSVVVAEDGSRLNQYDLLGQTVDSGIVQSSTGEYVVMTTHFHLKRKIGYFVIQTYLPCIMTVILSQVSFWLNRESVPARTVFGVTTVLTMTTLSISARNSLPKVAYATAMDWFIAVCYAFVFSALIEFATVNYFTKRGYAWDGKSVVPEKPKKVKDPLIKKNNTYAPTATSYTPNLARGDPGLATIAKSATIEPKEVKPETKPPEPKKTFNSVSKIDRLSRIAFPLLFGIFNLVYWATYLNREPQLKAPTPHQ
Sequence of Vasopressin V1a receptor (P37288 whole entry): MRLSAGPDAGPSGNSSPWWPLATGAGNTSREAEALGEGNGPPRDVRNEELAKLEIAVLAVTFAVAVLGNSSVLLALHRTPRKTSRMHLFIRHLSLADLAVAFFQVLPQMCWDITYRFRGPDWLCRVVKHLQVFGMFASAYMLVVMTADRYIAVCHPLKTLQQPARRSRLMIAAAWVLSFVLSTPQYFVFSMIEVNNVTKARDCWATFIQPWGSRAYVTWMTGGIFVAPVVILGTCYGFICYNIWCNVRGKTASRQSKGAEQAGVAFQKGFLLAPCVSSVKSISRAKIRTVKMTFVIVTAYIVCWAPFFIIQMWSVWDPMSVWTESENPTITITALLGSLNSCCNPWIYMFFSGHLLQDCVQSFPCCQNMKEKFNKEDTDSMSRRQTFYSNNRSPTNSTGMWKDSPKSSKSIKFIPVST
Sequence of Muscarinic acetylcholine receptor M3 (P20309 whole entry): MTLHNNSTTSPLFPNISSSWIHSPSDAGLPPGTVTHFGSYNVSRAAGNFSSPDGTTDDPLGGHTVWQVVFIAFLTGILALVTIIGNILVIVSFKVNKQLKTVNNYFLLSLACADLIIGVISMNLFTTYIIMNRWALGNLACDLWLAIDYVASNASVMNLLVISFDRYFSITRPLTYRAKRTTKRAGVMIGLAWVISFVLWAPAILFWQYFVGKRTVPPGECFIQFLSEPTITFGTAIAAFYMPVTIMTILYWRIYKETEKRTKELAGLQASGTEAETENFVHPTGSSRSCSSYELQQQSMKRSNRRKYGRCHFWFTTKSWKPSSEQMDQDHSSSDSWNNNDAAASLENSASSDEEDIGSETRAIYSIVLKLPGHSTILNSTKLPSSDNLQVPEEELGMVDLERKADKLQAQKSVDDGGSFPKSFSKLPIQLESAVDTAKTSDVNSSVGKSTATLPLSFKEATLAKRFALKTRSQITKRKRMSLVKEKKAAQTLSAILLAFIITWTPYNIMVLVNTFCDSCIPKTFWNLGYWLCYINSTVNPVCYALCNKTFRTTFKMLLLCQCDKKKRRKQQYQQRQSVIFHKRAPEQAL

On to `C=CCN1CCCC1CNC(=O)c1cc(S(N)(=O)=O)cc(OC)c1OC` (stereo unspecified) [VERALIPRIDE], for which the AC50 at Vasopressin V1a receptor is above 30 µM; at Cannabinoid receptor 1, above 30 µM; in [1], above 30 µM; at Histamine H1 receptor, above 30 µM; in [2] it was 10 µM; in experiment [3], above 30 µM. In addition, the AC50 on Adenosine receptor A2a is above 30 µM; at Histamine H3 receptor it was 23 µM; in experiment [4], above 30 µM; in [5] it was above 30 µM; on Mu-type opioid receptor it was above 30 µM; in experiment [6], 26 µM. Moreover, the AC50 (in experiment [7]; on B2 bradykinin receptor; in [8]; in experiment [9]; on Vasopressin V2 receptor; at Adenosine receptor A1) was above 30 µM throughout.
On to `O=C(NCCNCC(O)COc1ccc(O)cc1)N1CCOCC1` (stereo unspecified) [XAMOTEROL], for which the AC50 (on Vasopressin V1a receptor; on Cannabinoid receptor 1; in [1]; at Histamine H1 receptor; in experiment [2]; in experiment [3]) was above 30 µM throughout. Moreover, the half-maximal activity concentration (AC50) (at Adenosine receptor A2a; at Histamine H3 receptor; in experiment [4]; in [5]; on Mu-type opioid receptor; in experiment [6]) was above 30 µM in each case. Further, the concentration at half-maximal activity (AC50) (in experiment [7]; on B2 bradykinin receptor; in experiment [8]; in experiment [9]; on Vasopressin V2 receptor; on Adenosine receptor A1) was above 30 µM in each case.
